The structures appear in SMILES notation.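 Growth conditions: 96-well plates. Treatment: test compound, 48 hours, 5 concentrations. Analysis: linear interpolation between bracketing concentrations; unreached endpoints set to highest concentration. Here, GI50 denotes the concentration required for 50% inhibition of growth. TGI: concentration producing complete growth inhibition.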

Among the test systems are A549 NSCLC; ACHN renal; CAKI-1 renal; CCRF-CEM leukemia; HCC-2998 colon; M14 melanoma; PC-3 prostate; SW-620 colon; UACC-257 melanoma; RXF 393 renal.
Assay in all cases: NCI-60 cell line screen, 48 h

For `C=CS(=O)(=O)CCN1CC1`, the TGI in the test with A549 NSCLC, with ACHN renal, in the test on CAKI-1 renal, with CCRF-CEM leukemia, with HCC-2998 colon and with M14 melanoma was greater than 10 µM each time. Further, the TGI with PC-3 prostate, in the test on SW-620 colon and in the test on UACC-257 melanoma was greater than 10 µM throughout.

As for `COc1ccc(C2=CC(c3ccc(OC)c(OC)c3)c3c(c4ccccc4oc3=O)O2)cc1OC` (configuration not stated), the GI50 in the test on A549 NSCLC is 3.07 µM; in the test with ACHN renal, 3.03 µM; with CAKI-1 renal, 1.67 µM; in the test with CCRF-CEM leukemia it was 2.36 µM; with HCC-2998 colon, 1.37 µM; with M14 melanoma, 1.27 µM. The GI50 is 0.745 µM in the test with PC-3 prostate, 1.19 µM in the test with SW-620 colon and 1.13 µM with UACC-257 melanoma. The TGI in the test with A549 NSCLC is greater than 100 µM; in the test with ACHN renal it was greater than 100 µM; in the test on CAKI-1 renal, greater than 100 µM; in the test on CCRF-CEM leukemia, greater than 100 µM; in the test with HCC-2998 colon, 4.97 µM; in the test with M14 melanoma it was greater than 31.3 µM. For the same molecule, the TGI in the test with PC-3 prostate, with SW-620 colon and in the test with UACC-257 melanoma was greater than 100 µM each time.

As to `CCC(=O)N/N=C(\C=C\c1cccc(O)c1)c1sc(Nc2ccc(C)cc2[N+](=O)[O-])nc1C`, the TGI in the test on A549 NSCLC, with ACHN renal, in the test with CAKI-1 renal, in the test on CCRF-CEM leukemia, in the test on HCC-2998 colon and in the test with M14 melanoma was greater than 100 µM throughout. For the same molecule, the TGI with RXF 393 renal, with SW-620 colon and with UACC-257 melanoma was greater than 100 µM each time.

For `O=C1C=CC(CC(=O)c2ccc3ccccc3c2)O1` (configuration not stated), the TGI in the test with A549 NSCLC was greater than 100 µM; in the test with ACHN renal, greater than 100 µM; in the test with CAKI-1 renal, greater than 100 µM; in the test with CCRF-CEM leukemia it was 63.4 µM; in the test with HCC-2998 colon it was 31.1 µM; in the test on M14 melanoma, 93.9 µM. Further, the TGI with RXF 393 renal is 36.6 µM; with SW-620 colon, 49.5 µM; with UACC-257 melanoma, greater than 100 µM.

Turning to `CN(C)C(=S)/N=c1\ss/c(=N\S(=O)(=O)c2ccccc2)n1N(C)C`, the TGI in the test with A549 NSCLC, in the test on ACHN renal, with CAKI-1 renal, with CCRF-CEM leukemia, with HCC-2998 colon and with M14 melanoma was greater than 100 µM in each case. Further, the TGI was 85 µM in the test on RXF 393 renal, greater than 100 µM with SW-620 colon and greater than 100 µM in the test on UACC-257 melanoma.

In the case of `Nn1c(N=Nc2c(O)[nH]c3c(Cl)cc(Cl)cc23)n[nH]c1=S`, the TGI in the test on A549 NSCLC, in the test on ACHN renal, in the test with CAKI-1 renal, with CCRF-CEM leukemia, with HCC-2998 colon and with M14 melanoma was greater than 100 µM each time. Further, the TGI in the test on RXF 393 renal, with SW-620 colon and in the test on UACC-257 melanoma was greater than 100 µM each time.

`CN(/N=N/c1nc(OCc2ccccc2)c2[nH]cnc2n1)C(=O)Oc1ccc([N+](=O)[O-])cc1`: the GI50 in the test with A549 NSCLC is 12 µM; with CAKI-1 renal it was 10.9 µM; in the test on M14 melanoma, 8.87 µM; in the test on PC-3 prostate, 10.8 µM; with SW-620 colon it was 9.02 µM; in the test on UACC-257 melanoma it was 39 µM. In addition, the TGI was 31.6 µM in the test with A549 NSCLC; 35.4 µM in the test with CAKI-1 renal; 18.4 µM with M14 melanoma; 27.1 µM in the test on PC-3 prostate; 26.1 µM in the test with SW-620 colon; greater than 50 µM in the test on UACC-257 melanoma.

For `O=C(NO)c1ccc(O)c(O)c1`, the TGI in the test on A549 NSCLC, with ACHN renal, with CAKI-1 renal, with CCRF-CEM leukemia, with HCC-2998 colon and in the test with M14 melanoma was greater than 100 µM in each case. Moreover, the TGI in the test with RXF 393 renal, in the test on SW-620 colon and in the test on UACC-257 melanoma was greater than 100 µM throughout.

Regarding `O=C1NC(=O)C2C1N(Cc1ccccc1)C(=O)N2Cc1ccccc1` (configuration not stated), the TGI in the test with A549 NSCLC, in the test with ACHN renal, in the test with CAKI-1 renal, in the test with CCRF-CEM leukemia, in the test on HCC-2998 colon and with M14 melanoma was greater than 100 µM throughout. Besides, the TGI in the test with RXF 393 renal, in the test with SW-620 colon and with UACC-257 melanoma was greater than 100 µM throughout.

`O=C(/C=C1/Nc2ccc([N+](=O)[O-])cc2NC1O)c1cccc([N+](=O)[O-])c1` (configuration not stated): the TGI in the test with A549 NSCLC, with ACHN renal, with CAKI-1 renal, in the test on CCRF-CEM leukemia, with HCC-2998 colon and with M14 melanoma was greater than 100 µM in each case. Besides, the results for the TGI with RXF 393 renal, in the test with SW-620 colon and with UACC-257 melanoma were 65.4 µM, greater than 100 µM and greater than 100 µM, respectively.

Turning to `O=C1CC(c2ccc(Cl)cc2)Oc2ccccc21` (configuration not stated), the TGI was greater than 100 µM with ACHN renal; 77.3 µM with CAKI-1 renal; 37.4 µM in the test on CCRF-CEM leukemia; 55 µM in the test with HCC-2998 colon; 58.4 µM in the test on M14 melanoma; 52.5 µM in the test with PC-3 prostate. In addition, the TGI with SW-620 colon and in the test on UACC-257 melanoma was greater than 100 µM in each case.

For the molecule `Cc1cccc2nc3cccc(C(=O)NCCN(C)C)c3nc12`, the TGI in the test on A549 NSCLC was 15.3 µM; in the test with ACHN renal it was 5.8 µM; in the test with CAKI-1 renal, 15.8 µM; in the test with CCRF-CEM leukemia, greater than 100 µM; in the test on HCC-2998 colon, 2.27 µM; in the test on M14 melanoma, 2.36 µM. In addition, the values for the TGI in the test on RXF 393 renal, in the test with SW-620 colon and in the test on UACC-257 melanoma were 2.99 µM, 11.2 µM and 2.61 µM, respectively.

On to `CC1=CC(=O)N(c2c(C)cccc2Cl)C(C)N1` (configuration not stated), for which the TGI in the test with A549 NSCLC, in the test on ACHN renal, with CAKI-1 renal, in the test on CCRF-CEM leukemia, in the test with HCC-2998 colon and in the test with M14 melanoma was greater than 100 µM in each case. In addition, the TGI in the test with RXF 393 renal, in the test with SW-620 colon and in the test on UACC-257 melanoma was greater than 100 µM throughout.

Take `O=C(O)CCSC(=O)Nc1ccc(N=Nc2ccccc2)cc1`: the TGI in the test with A549 NSCLC, in the test with ACHN renal, with CAKI-1 renal, in the test on CCRF-CEM leukemia, in the test on HCC-2998 colon and in the test on M14 melanoma was greater than 100 µM throughout. The TGI in the test on RXF 393 renal, in the test with SW-620 colon and with UACC-257 melanoma was greater than 100 µM in each case.

The values above are taken from PubChem BioAssay (NCI).
